Source: the NIST ThermoML archive (doi:10.1021/je400431e)

Assay: mn = molality of the nth substance listed, in mol/kg
Settings: 298 K, Ring tensiometer

CCCCCCCCCCCC[N+](C)(C)C.[Cl-] [N,N,N-trimethyl-1-dodecanaminium chloride] + O
Settings | surface tension liquid-gas [mN/m]
m1 = 3e-05 | 56.38
m1 = 5e-05 | 51.17
m1 = 7e-05 | 47.18
m1 = 0.0001 | 41.7
m1 = 0.00015 | 35.66
m1 = 0.0002 | 31.91
m1 = 0.0003 | 28.13
m1 = 0.0005 | 25.41
m1 = 0.0007 | 25.28
m1 = 0.001 | 25.68
m1 = 0.0013 | 25.4
m1 = 0.0016 | 25.52

CCCCCCCCCCCCOS(=O)(=O)[O-].[Na+] [sodium dodecyl sulfate] + O
Settings | surface tension liquid-gas [mN/m]
m1 = 0.00013 | 66.84
m1 = 0.00031 | 60.83
m1 = 0.00102 | 52.39
m1 = 0.00303 | 45.05
m1 = 0.00501 | 40.55
m1 = 0.007 | 38.58
m1 = 0.008 | 37.41
m1 = 0.009 | 37.73
m1 = 0.01 | 37.99
m1 = 0.012 | 37.76
